{"source": "patent US20070054940A1", "about": "“Remedy for down's syndrome” (EISAI CO., LTD., priority 2003, published 2007)", "key": {"[1]": {"experiment": "Blood concentration in the patient with rapid retrogression", "conditions": "human, in vivo; 2 mg/day oral, house visit after 2 months", "procedure": "It was confirmed that the subject was spontaneously getting up in the morning with extreme regularity. In addition, in daily activities the patient was sorting laundry, and before administration could not fold one piece in 30 minutes, but after administration could process 10 to 20 pieces in 10 minutes, and was approaching the level prior to the symptoms of rapid retrogression. Furthermore, the patient was able to spontaneously take medicine without the instruction of a parent. […] The blood concentration was 13.7 ng/mL."}, "Down's syndrome": {"test_system": "Down's syndrome", "conditions": "in vivo; cited from earlier work"}, "[2]": {"test_system": "Down's syndrome model mouse", "conditions": "cited from earlier work"}, "[3]": {"test_system": "human children with Down's syndrome", "conditions": "25 human children with Down's syndrome; cited from earlier work"}}, "note": "Structures can show the parent of a compound that is named as a salt."}
{"molecule": "COc1cc2c(cc1OC)C(=O)C(CC1CCN(Cc3ccccc3)CC1)C2", "note": "(stereo not shown) [donepezil hydrochloride]", "values": [{"measurement": "concentration at 2 months", "setting": "[1]", "result": 13.7, "unit": "ng/mL"}]}
{"molecule": "N[C@@H](Cc1c[nH]c2ccc(O)cc12)C(=O)O", "note": "[5-hydroxytryptophan]", "values": [{"measurement": "Development of motor skills, language skills, intelligence, or socialization", "setting": "Down's syndrome", "result": "no efficacy was seen"}]}
{"molecule": "NC(=O)CN1CCCC1=O", "note": "[piracetam]", "values": [{"measurement": "Cognitive function", "setting": "[2]", "result": "an effect in improving cognitive function was seen"}, {"measurement": "Cognitive function", "setting": "[3]", "result": "no improvement in cognitive function was seen"}]}
